Holding throughout (format): in vivo
Assay [1] concerns diamondback moths (Plutella xylostella). The assay is described as follows: Insecticidal test for diamondback moths. Particulars: Plutella xylostella, 144 h; 500 ppm chemical solution, leaves soaked, third-instar larvae, six days, 25°C; read-out: death rate. The protocol: A 10% by mass emulsion of the presently invented compound prepared according to the above formulation example for an emulsion was diluted with water containing a spreader to prepare a chemical solution having a concentration of 500 ppm. Chinese olive leaves were soaked in the chemical solution for approximately 10 seconds. After the completion of the soaking operation, the Chinese olive leaves treated with the chemical solution were air-dried, and then put in dishes. Into each dish, five third-instar diamondback moths (Plutella xylostella) larvae were released, and the dishes were capped and accommodated in a thermostatic room at 25°C. […] The test was carried out in duplicate.

In assay [2] the test system is western flower thrips (Frankliniella occidentalis). The assay is described as follows: Insecticidal activity against western flower thrips. Conditions: Frankliniella occidentalis, 48 h; 500 ppm chemical solution sprinkled (2.5 mg/cm^2), larvae on common bean leaf, after 2 days; read-out: death rate. The protocol: Wet filter paper was laid on each styrol cup having an inner diameter of 7 cm, and a common bean leaf cut into a 3 cm square was placed thereon, and inoculated with 20 western flower thrips (Frankliniella occidentalis) larvae. A 10% by mass emulsion of the presently invented compound prepared according to the above formulation example for an emulsion was diluted with water containing a spreader to prepare a chemical solution having a concentration of 500 ppm. For each styrol cup, 2.5 ml of the chemical solution prepared was sprinkled (2.5 mg/cm^2) with a rotary tower sprinkler. […] The test was carried out in duplicate.

Assay [3] has as its system cat fleas (Ctenocephalides felis). The assay is described as follows: whole plant or invertebrate. Conditions: 72 h, read-out: death rate. The procedure:
In 1 ml of acetone, 1 mg of the presently invented compound was dissolved to prepare a chemical solution having a concentration of 1000 ppm. The bottom surface and side surface of each glass container having an inner wall surface area of 25 cm^2 were coated with 250 µl of the chemical solution, and acetone was then volatilized to form a thin film of the compound on the inner wall of the glass container.
Into each of the treated glass containers, five cat fleas (Ctenocephalides felis) imagoes (mixed-sex) were released, and the glass containers were capped and accommodated in a thermostatic room at 25°C. Three days after the release, the number of dead flea individuals were examined, and the death rate was calculated from the same calculation formula as in Test Example 1.

In assay [4] the test system is brown rice planthoppers (Nilaparvata lugens). The assay is described as follows: Insecticidal test for brown rice planthoppers. Conditions: Nilaparvata lugens, 144 h; 500 ppm chemical solution, rice leaf sheaths soaked, third-instar larvae, six days, 25°C; read-out: death rate. The protocol: A 10% by mass emulsion of the presently invented compound prepared according to the above formulation example for an emulsion was diluted with water containing a spreader to prepare a chemical solution having a concentration of 500 ppm. Rice leaf sheaths were soaked in the chemical solution for approximately 10 seconds. After the completion of the soaking operation, the rice leaf sheaths treated with the chemical solution were air-dried, and then put in test tubes. Into each test tube, five third-instar brown rice planthoppers (Nilaparvata lugens) larvae were released, and the test tubes were capped with sponge and accommodated in a thermostatic room at 25°C. Six days after the accommodation, the number of dead brown rice planthoppers individuals in the test tubes were examined, and the death rate was calculated from a calculation formula shown below. The test was carried out in duplicate. [formula]

Consider 29 compounds from patent EP4582413A1, “ARYLTETRAHYDROPYRIDINE COMPOUND AND PEST CONTROL AGENT” (priority 2022, dated 2024).

The structures appear in SMILES notation.

`O=C(Nc1ccc(F)cc1F)C1=C(O)CC(c2nc(-c3ccc(F)cc3F)no2)NC1=O` (centres unmarked) [3-157]: the mortality at 500 µg/mL in assay [1], in assay [2] and in assay [4] was at least 90% each time. The mortality at 10 µg/cm2 in assay [3] was at least 50%.
`O=C(Nc1ccc(F)cn1)C1=C(O)CC(c2cnc(Cl)c(-c3cnccc3F)c2)NC1=O` (centres unmarked) [2-136]: the mortality at 500 µg/mL in assay [1], in assay [2] and in assay [4] was at least 90% throughout. The mortality at 10 µg/cm2 in assay [3] is at least 50%.
`O=C(Nc1cnc(Cl)cn1)C1=C(O)CC(c2cnc(Cl)c(-c3ccccc3)c2)NC1=O` (centres unmarked) [2-095]: the mortality at 500 µg/mL in assay [1], in assay [2] and in assay [4] was at least 90% throughout. In addition, the mortality at 10 µg/cm2 in assay [3] was at least 50%.
In the case of `O=C(Nc1ccccn1)C1=C(O)CC(c2nc(-c3ccc(F)cc3)no2)NC1=O` (centres unmarked) [3-184], the mortality at 500 µg/mL in assay [1], in assay [2] and in assay [4] was at least 90% in each case. In addition, the mortality at 10 µg/cm2 in assay [3] was at least 50%.
On to `O=C(Nc1nccs1)C1=C(O)CC(c2cnc(Cl)c(-c3ccc(F)cc3)c2)NC1=O` (centres unmarked) [2-235], for which the mortality at 500 µg/mL in assay [1], in assay [2] and in assay [4] was at least 90% in each case. In assay [3], the mortality at 10 µg/cm2 was at least 50%.
Take `O=C(Nc1cc(C(F)(F)F)ccn1)C1=C(O)CC(c2cnc(Cl)c(-c3cnccc3F)c2)NC1=O` (centres unmarked) [2-145]: the mortality at 500 µg/mL in assay [1], in assay [2] and in assay [4] was at least 90% each time. Also, the mortality at 10 µg/cm2 in assay [3] was at least 50%.
On to `O=C(Nc1ccccn1)C1=C(O)CC(c2nc(-c3snc(Cl)c3Cl)no2)NC1=O` (centres unmarked) [3-263], for which the mortality at 500 µg/mL in assay [1], in assay [2] and in assay [4] was at least 90% each time. Besides, in assay [3], the mortality at 10 µg/cm2 was at least 50%.
Consider `Cc1cccc(-c2cc(C3CC(O)=C(C(=O)Nc4ccc(F)cc4)C(=O)N3)cnc2Cl)c1` (centres unmarked) [2-263], for which the mortality at 500 µg/mL in assay [1], in assay [2] and in assay [4] was at least 90% in each case. Further, the mortality at 10 µg/cm2 in assay [3] was at least 50%.
As to `O=C(Nc1cc(Br)cc(F)n1)C1=C(O)CC(c2cnc(Cl)c(-c3cnccc3F)c2)NC1=O` (centres unmarked) [2-138], the mortality at 500 µg/mL in assay [1], in assay [2] and in assay [4] was at least 90% throughout. Moreover, the mortality at 10 µg/cm2 in assay [3] was at least 50%.
Regarding `O=C(Nc1ncccn1)C1=C(O)CC(c2cnc(Cl)c(-c3cnccc3F)c2)NC1=O` (centres unmarked) [2-134], the mortality at 500 µg/mL in assay [1], in assay [2] and in assay [4] was at least 90% throughout. The mortality at 10 µg/cm2 in assay [3] is at least 50%.
Turning to `O=C(Nc1cccc(F)n1)C1=C(O)CC(c2nc(-c3ccncc3Cl)no2)NC1=O` (centres unmarked) [3-239], the mortality at 500 µg/mL in assay [1], in assay [2] and in assay [4] was at least 90% in each case. Besides, the mortality at 10 µg/cm2 in assay [3] is at least 50%.
Take `N#Cc1ccc(NC(=O)C2=C(O)CC(c3cnc(Cl)c(-c4ccccc4)c3)NC2=O)nc1` (centres unmarked) [2-094]: the mortality at 500 µg/mL in assay [1], in assay [2] and in assay [4] was at least 90% each time. Moreover, in assay [3], the mortality at 10 µg/cm2 was at least 50%.
As to `O=C(Nc1nccs1)C1=C(O)CC(c2cnc(Cl)c(-c3cnccc3F)c2)NC1=O` (centres unmarked) [2-135], the mortality at 500 µg/mL in assay [1], in assay [2] and in assay [4] was at least 90% each time. Further, the mortality at 10 µg/cm2 in assay [3] was at least 50%.
For `N#Cc1ccc(NC(=O)C2=C(O)CC(c3cnc(Cl)c(-c4ccc(F)nc4)c3)NC2=O)cn1` (centres unmarked) [2-013], the mortality at 500 µg/mL in assay [1], in assay [2] and in assay [4] was at least 90% each time. Moreover, the mortality at 10 µg/cm2 in assay [3] was at least 50%.
`Cc1cccc(-c2cc(C3CC(O)=C(C(=O)Nc4ccc(C#N)cc4)C(=O)N3)cnc2Cl)c1` (centres unmarked) [2-269]: the mortality at 500 µg/mL in assay [1], in assay [2] and in assay [4] was at least 90% throughout. Further, the mortality at 10 µg/cm2 in assay [3] is at least 50%.
With `O=C(Nc1cc(F)ccn1)C1=C(O)CC(c2nc(-c3ccc(F)c(Br)c3)no2)NC1=O` (centres unmarked) [3-146], the mortality at 500 µg/mL in assay [1], in assay [2] and in assay [4] was at least 90% each time. Also, the mortality at 10 µg/cm2 in assay [3] is at least 50%.
On to `O=C(Nc1cccc(F)n1)C1=C(O)CC(c2nc(-c3ccncc3F)no2)NC1=O` (centres unmarked) [3-238], for which the mortality at 500 µg/mL in assay [1], in assay [2] and in assay [4] was at least 90% each time. Also, in assay [3], the mortality at 10 µg/cm2 was at least 50%.
For `N#Cc1ccc(NC(=O)C2=C(O)CC(c3nc(-c4ccnc(F)c4)no3)NC2=O)cc1` (centres unmarked) [3-071], the mortality at 500 µg/mL in assay [1], in assay [2] and in assay [4] was at least 90% throughout. Further, in assay [3], the mortality at 10 µg/cm2 is at least 50%.
Regarding `N#Cc1ccc(NC(=O)C2=C(O)CC(c3cnc(Cl)c(-c4ccccc4)c3)NC2=O)cn1` (centres unmarked) [2-093], the mortality at 500 µg/mL in assay [1], in assay [2] and in assay [4] was at least 90% in each case. Besides, the mortality at 10 µg/cm2 in assay [3] is at least 50%.
As to `O=C(Nc1cc(F)ccn1)C1=C(O)CC(c2nc(-c3cscc3Cl)no2)NC1=O` (centres unmarked) [3-234], the mortality at 500 µg/mL in assay [1], in assay [2] and in assay [4] was at least 90% throughout. Besides, the mortality at 10 µg/cm2 in assay [3] is at least 50%.
With `O=C(Nc1ccc(F)cc1)C1=C(O)CC(c2nc(-c3cncc(F)c3)no2)NC1=O` (centres unmarked) [3-021], the mortality at 500 µg/mL in assay [1], in assay [2] and in assay [4] was at least 90% throughout. The mortality at 10 µg/cm2 in assay [3] was at least 50%.
On to `O=C(Nc1ccc(F)cc1)C1=C(O)CC(c2nc(-c3cccc(Cl)c3)no2)NC1=O` (centres unmarked) [3-029], for which the mortality at 500 µg/mL in assay [1], in assay [2] and in assay [4] was at least 90% throughout. Further, the mortality at 10 µg/cm2 in assay [3] was at least 50%.
Take `O=C(Nc1ccc(F)cc1)C1=C(O)CC(c2nc(-c3cc(F)cc(F)c3)no2)NC1=O` (centres unmarked) [3-034]: the mortality at 500 µg/mL in assay [1], in assay [2] and in assay [4] was at least 90% in each case. The mortality at 10 µg/cm2 in assay [3] was at least 50%.
In the case of `O=C(Nc1ccc(F)cc1)C1=C(O)CC(c2cnc(Cl)c(-c3ccccc3)c2)NC1=O` (centres unmarked) [2-089], the mortality at 500 µg/mL in assay [1], in assay [2] and in assay [4] was at least 90% in each case. For the same compound, the mortality at 10 µg/cm2 in assay [3] is at least 50%.
For `O=C(Nc1cnccn1)C1=C(O)CC(c2cnc(Cl)c(-c3cncc(Cl)c3)c2)NC1=O` (centres unmarked) [2-147], the mortality at 500 µg/mL in assay [1], in assay [2] and in assay [4] was at least 90% in each case. The mortality at 10 µg/cm2 in assay [3] was at least 50%.
`O=C(Nc1cc(F)ccn1)C1=C(O)CC(c2nc(-c3ccsc3Cl)no2)NC1=O` (centres unmarked) [3-235]: the mortality at 500 µg/mL in assay [1], in assay [2] and in assay [4] was at least 90% in each case. In addition, the mortality at 10 µg/cm2 in assay [3] is at least 50%.
For the compound `O=C(Nc1cc(F)ccn1)C1=C(O)CC(c2nc(-c3cccc(F)c3)no2)NC1=O` (centres unmarked) [3-057], the mortality at 500 µg/mL in assay [1], in assay [2] and in assay [4] was at least 90% each time. For the same compound, the mortality at 10 µg/cm2 in assay [3] is at least 50%.
In the case of `O=C(Nc1cc(F)ccn1)C1=C(O)CC(c2nc(-c3cc(F)ccc3F)no2)NC1=O` (centres unmarked) [3-050], the mortality at 500 µg/mL in assay [1], in assay [2] and in assay [4] was at least 90% throughout. Besides, the mortality at 10 µg/cm2 in assay [3] is at least 50%.
Take `O=C(Nc1cnccn1)C1=C(O)CC(c2cnc(Cl)c(-c3ccc(F)cc3)c2)NC1=O` (centres unmarked) [2-227]: the mortality at 500 µg/mL in assay [1], in assay [2] and in assay [4] was at least 90% throughout. Also, the mortality at 10 µg/cm2 in assay [3] is at least 50%.
